The values that follow are results of earlier work, collected in patent US20070148100A1 (priority 2005, published 2007).

In series [1] the target is T1, 5-HT1A receptor (Homo sapiens, UniProt P08908).
T1 sequence (P08908 1-422): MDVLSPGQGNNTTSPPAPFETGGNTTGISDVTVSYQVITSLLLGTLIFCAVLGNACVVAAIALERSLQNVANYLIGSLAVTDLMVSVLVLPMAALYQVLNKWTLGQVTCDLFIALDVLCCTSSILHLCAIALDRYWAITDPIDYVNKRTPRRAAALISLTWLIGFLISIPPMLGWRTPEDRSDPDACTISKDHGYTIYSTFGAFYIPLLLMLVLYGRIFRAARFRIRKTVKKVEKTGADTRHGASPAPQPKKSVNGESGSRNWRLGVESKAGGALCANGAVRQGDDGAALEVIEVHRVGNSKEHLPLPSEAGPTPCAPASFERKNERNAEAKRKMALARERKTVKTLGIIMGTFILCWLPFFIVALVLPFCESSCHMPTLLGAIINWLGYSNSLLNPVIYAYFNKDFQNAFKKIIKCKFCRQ

For series [2], the target named is 5-HT2A receptor (Homo sapiens, UniProt P28223).
5-HT2A receptor, sequence (P28223 whole entry): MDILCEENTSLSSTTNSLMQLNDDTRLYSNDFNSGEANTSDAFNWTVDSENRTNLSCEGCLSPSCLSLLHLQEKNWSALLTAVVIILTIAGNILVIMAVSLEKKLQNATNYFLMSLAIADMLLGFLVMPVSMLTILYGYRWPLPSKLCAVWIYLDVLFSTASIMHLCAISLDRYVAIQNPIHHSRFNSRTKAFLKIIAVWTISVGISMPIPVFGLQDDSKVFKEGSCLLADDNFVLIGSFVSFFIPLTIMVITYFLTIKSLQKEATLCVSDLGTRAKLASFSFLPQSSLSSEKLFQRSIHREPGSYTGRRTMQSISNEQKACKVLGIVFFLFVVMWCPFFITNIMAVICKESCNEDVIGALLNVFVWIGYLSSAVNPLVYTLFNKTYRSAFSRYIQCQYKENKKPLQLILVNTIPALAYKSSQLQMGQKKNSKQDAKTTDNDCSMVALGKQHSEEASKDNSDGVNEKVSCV
The subject of series [3] is histamine receptors.
Series [4] has as its system alpha-adrenergic receptors.
The subject of series [5] is cholinergic muscarinic receptors.

For the compound `O=C1CCc2ccc(OCCCCN3CCN(c4cccc(Cl)c4Cl)CC3)cc2N1` [Aripiprazole, 7-[4-[4-(2,3-dichlorophenyl)-1-piperazinyl]butoxy]-3,4-dihydrocarbostyril], in series [1], the “activity at the 5-HT1A receptor” value is on record as “partial agonist”. Further, the “activity at the 5-HT2A receptor” value in series [2] is “antagonist profile”. Moreover, the “affinity for histamine receptors” value in series [3] is given as “moderate affinity”. Further, the “affinity for alpha-adrenergic receptors” value in series [4] is “moderate affinity”. In series [5], the “affinity for cholinergic muscarinic receptors” value is “no appreciable affinity”. Further, for the setting “in vivo”, the elimination half-life result was “approximately 75 hours” and the “kinetics (linearity)” value is “linear kinetics”. Besides, the bioavailability entry (oral tablets) is recorded as “about 90%”.
